Measurements from paper PMC2673918 (Journal of natural products, 2009).

Legend:
trypsin = trypsin inhibition; type: biochemical; details: at concentrations up to 100 µg/mL
chymotrypsin = chymotrypsin inhibition; type: biochemical; details: at concentrations up to 100 µg/mL

| Substance | trypsin inhibition (qualitative) (trypsin) | chymotrypsin inhibition (qualitative) (chymotrypsin) |
| --- | --- | --- |
| Anabaenopeptin 908 [Compound 3] | did not observe trypsin/chymotrypsin inhibition | did not observe trypsin/chymotrypsin inhibition |
| Anabaenopeptin 915 [Compound 4] | did not observe trypsin/chymotrypsin inhibition | did not observe trypsin/chymotrypsin inhibition |
